From publication PMC8532448, “Drug target inference by mining transcriptional data using a novel graph convolutional network framework” (Protein & Cell, 2021)
pKd: −log10 of the molar value.

Target: Cyclophilin A (CYPA, PPIA) (Homo sapiens, UniProt P62937)
Assay: SPR with purified CYPA; also protein thermal shift (destabilization) and chymotrypsin-coupled PPIase inhibition
Format: binding

Chain of Cyclophilin A (CYPA, PPIA) (P62937 whole entry): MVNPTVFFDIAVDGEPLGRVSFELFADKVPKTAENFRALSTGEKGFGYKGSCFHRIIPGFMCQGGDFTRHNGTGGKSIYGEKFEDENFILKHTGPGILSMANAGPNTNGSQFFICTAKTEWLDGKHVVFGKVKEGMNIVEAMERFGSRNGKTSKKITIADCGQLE

pKd: 6.03
SMILES: Cc1c(O)cccc1C(=O)N[C@@H](CSc1ccccc1)[C@H](O)CN1C[C@H]2CCCC[C@H]2C[C@H]1C(=O)NC(C)(C)C [NFV, Nelfinavir]
